Laboratory results published in patent publication US8088951B2, “Epigenetic mechanisms re-establish access to long-term memory after neuronal loss” (Massachusetts Institute of Technology, priority 2006, dated 2012).
Entries after “also recorded” stand apart in the source; their conditions may differ.

How the values were obtained:
Type in all cases: in vivo
CK-p25 Tg mice [1] = test: Fear conditioning learning in CK-p25 Tg mice after neurodegeneration; conditions: 6 weeks p25 induction, then daily 1.2 g/kg for 4 weeks, vs saline, P=0.009
Text: (§1) Learning tests: All behavioral testing is described in Fischer et al. (3).
Reinstatement of learning behavior through inhibition of HDAC. Whether sustained inhibition of HDACs would reinstate learning behavior and recover access to long-term memories in CK-p25 Tg mice that had developed synaptic and neuronal loss was investigated. P25 was induced in 11 month old CK-p25 Tg mice for 6 weeks. Afterwards p25 expression was repressed and one group of CK-p25 Tg mice was subjected to daily sodiumbutyrate (SB) injection (1.2 g/kg) for 4 weeks (n=9), whereas the other group received saline injection (n=9). […] To this end p25 expression was induced in 11-month old CK-p25 mice for 6 weeks, before one group was injected daily for 4 weeks with SB whereas the control group received saline injection (FIG. 4a).

C57BL/6J mice = test: Water maze paradigm (spatial learning) in wild type mice; conditions: daily ip for 4 weeks; vs vehicle group; P<0.0001
Text: as §1
Mechanism underlying EE. Other than a few genes involved in synaptic function, relatively little is known about the mechanism underlying EE (12-14). Since histone acetylation, an epigenetic mechanism regulating gene expression via chromatin remodeling, has recently been implicated in synaptic plasticity and learning behavior (15-18), the induction of a transcriptional program by EE that leads to activation of plasticity genes was evaluated. Wild type mice were subjected to EE and hippocampal and cortical brain lysates were obtained 3, 24 h or 2 weeks later (n=3/group) by acid extraction and probed with antibodies detecting histone-tail modification that indicate active chromatin. Increases in hippocampal H3 (K-9, K14) and H4 (K-5) and in cortical H3 (K-9) and H4 (K-5) acetylation were observed. […] No changes in H4 acetylation were observed when the Ac-H4 (K,8,12,16) antibody was used, which is likely due to the fact that H4-K16 is a marker of condensed chromatin. EE induced hippocampal and cortical histone 3 (H3) and histone 4 (H4) acetylation and methylation as soon as 3 hours after treatment (FIGS. 3a, b). […]
The over expression of HDAC2 impairs spatial learning. […] The swimming path of the mice was recorded by a video camera and analyzed by the Videomot 2 software (TSE). […]

CK-p25 Tg mice [2] = test: Recovery of long-term spatial memories in CK-p25 Tg mice (water maze reminder-training); conditions: daily injection after 6 weeks p25 expression
Text: Recovery of spatial memories upon environmental enrichment and sodiumbutyrate injection. CK-p25 Tg mice in which p25 expression was repressed and control mice were trained in the water maze paradigm until all mice reliably found the hidden platform. Afterwards all mice were returned to their home cages for 4 weeks to allow the consolidation of hippocampus independent long-term memories. Afterwards p25 expression was induced for 6 weeks, followed by p25 repression. […] To measure the retrieval of long-term memory mice were instead exposed to only 2 reminder-training sessions on a single day. […] The recovery of spatial memories upon environmental enrichment was evaluated by a similar experiment, except that after 6 weeks of p25 expression mice were either subjected to EE or returned to their home cages for 4 weeks. […] To evaluate the recovery of spatial memories upon SB injection, a similar experiment was performed as described above, but instead of EE, one group of CK-p25 Tg mice (n=10) received daily injection of SB, whereas the other group was injected with vehicle (n=10).

[3] = tested on: MAP-2, synaptophysin (SVP), synaptic marker proteins; test: Synaptic plasticity markers in CK-p25 Tg mice (immunostaining, immunoblot)
Protocol: Immunoblotting and staining: Lysates for immunoblotting were prepared as described by Fischer et al. (3). To isolate histones, brain tissue was homogenized in TX-buffer (50 mM Tris HCL, 150 mM NACL, 2 mM EDTA, 1% Triton-100) and incubated at 4° C. for 15 min prior to centrifugation at 200 rpm for 10 min. After a wash-step in TX-buffer the pellet was dissolved in TX-buffer containing 0.2M HCl and incubated on ice for 30 min, before a second centrifugation at 10000 rpm for 10 min. The supernatant was either dialysed or directly used for immunoblotting. Antibodies were used in 1:1000 concentrations. All antibodies detecting histones and anti-PSD-95 were form Upstate (Lake Placid, N.Y.). Anti-synaptophysin (SVP38) was from Sigma. Anti-neuronal nuclei (neuN) and anti-growth associated protein (Gap43) were from Chemicon (Temecula, Calif.) and anti-N-cadherin, anti-β-catenin were from Santa Cruz (Santa Cruz, Calif.). Immunostaining was performed as described by Fischer et al. (3). Antibodies mentioned above were used in a 1:500 dilution. Anti-MAP-2 antibody (Sigma) was used in a 1:200 dilution.
LSMeta10 software (Zeiss; Jena, Germany) was used to calculate the mean SVP intensity. Brain sections with the strongest intensity were scanned first. All other images included in the analysis where scanned using the same microscope setting. […] Scale bar: 20 μm. py, pyramidal cell layer (FIG. 1g).
For SB treatment, p25 was induced in 11 month old CK-p25 Tg mice for 6 weeks. Afterwards p25 expression was repressed and one group of CK-p25 Tg mice was subjected to daily sodiumbutyrate (SB) injection (1.2 g/kg) for 4 weeks, whereas the other group received saline injection. […] Representative images showing hippocampal MAP-2 staining are depicted in FIG. 7f. MAP-2 immunoreactivity of CK-p25 Tg mice treated with SB is increased when compared to the vehicle group. Representative images showing NeuN staining of the ACC.

CCCC(=O)[O-].[Na+] [SB, sodiumbutyrate]
associative learning (freezing behavior) (CK-p25 Tg mice [1]): significantly enhanced
escape latency in water maze paradigm (C57BL/6J mice): shorter escape latency
recovery of long-term spatial memories (CK-p25 Tg mice [2]): leads to the recovery of long-term spatial memories; also recorded: spatial long-term memories recover after neuronal loss
levels of synaptic marker proteins (markers for synaptic plasticity and integrity) ([3]; CK-p25 Tg mice, daily 1.2 g/kg for 4 weeks, hippocampus and cortex, vs vehicle): increased levels of synaptic marker proteins; also recorded: several markers for synaptic plasticity and integrity were increased
hippocampal MAP-2 immunoreactivity ([3]; CK-p25 Tg mice, daily 1.2 g/kg for 4 weeks, vs vehicle): increased
levels of synaptic marker proteins ([3]; CK-p25 Tg mice, long-term memory experiment, vs vehicle group): elevated levels of synaptic marker proteins
MAP-IR in the ACC ([3]; CK-p25 Tg mice, vs vehicle treated): MAP-IR was increased
hippocampal SVP-IR ([3]; CK-p25 mice, vs vehicle-injected, P<0.0001): increased hippocampal SVP-IR
